Source: US4497801A, “New peptides, process for preparation thereof and use thereof” (Fujisawa Pharmaceutical Co., Ltd., priority 1982, dated 1985)
Where a SMILES comes first, the peptide text is derived from it. [ ]: non-standard residue; d: D form. pGlu = O=C1CC[C@@H](C(=O)O)N1

What was measured:
Assay type in all cases: in vivo, ICR strain mice
[1] = test system: Herpes simplex virus type 1 Miyama strain; assay: Test 6: protective effect against virus infection; details: 0.01 mg/kg i.p. 8, 7, 4, 3 and 2 days before i.p. HSV-1 infection; mice observed 14 days
Method: (§1) Test animals: ICR strain mice, males, 4 weeks old, 10 to 20 animals per group.
(6) Test 6 (protective effect against virus infection)
Test animals: Same as Test 5.
Administration schedule: Each peptide of this invention in aqueous solution was intraperitoneally administered 8, 7, 4, 3 and 2 days before infection (0.01 mg/kg).
(§2) Method of virus infection: Herpes simplex virus type 1 Miyama strain (concentration: 2×10^3 pfu/ml) was suspended in sterile physiological saline and 0.2 ml of the suspension was intraperitoneally inoculated.

Escherichia coli No. 22 [2] = assay: Test 1: protective effect against bacterial infection (i.p. 7, 6, 3, 2 and 1 day before infection); details: mice observed 4 days
Method: (1) Test 1 (protective effect against bacterial infection)
as §1
(§3) Administration schedule: The peptides of this invention in predetermined concentrations (aqueous solutions) were intraperitoneally administered 7, 6, 3, 2 and 1 day before infection.
(§4) Method of bacterial infection: Escherichia coli No. 22, cultured at 37° C. for 20 hours (concentration: 2.0×10^8 cfu/ml), was suspended in sterile physiological saline and the test mice were intraperitoneally inoculated with 0.5 ml of the suspension.

Escherichia coli No. 22 [3] = assay: Test 2: protective effect against bacterial infection (i.p. 6, 5, 4 and 1 day before infection); details: mice observed 4 days
Method: as §1, §4
(2) Test 2 (protective effect against bacterial infection)
(§5) Test animals: Same as Test 1.
Administration schedule: Each peptide of this invention in predetermined concentrations (aqueous solutions) was intraperitoneally administered 6, 5, 4 and 1 day before infection.
(§6) Method of bacterial infection: Same as Test 1.

Escherichia coli No. 22 [4] = assay: Test 3: protective effect against bacterial infection (i.p. 8, 7, 4, 3 and 2 days before infection); details: mice observed 4 days
Method: as §1, §4
(3) Test 3 (protective effect against bacterial infection)
Test animals: Same as Test 1
(§7) Administration schedule: Each peptide of this invention in predetermined concentrations (aqueous solutions) was intraperitoneally administered 8, 7, 4, 3 and 2 days before infection.
as §6

[5] = test system: Herpes simplex virus type 1 Miyama strain; assay: Test 4: protective effect against virus infection; details: mice observed 14 days
Description: as §1
(4) Test 4 (protective effect against virus infection)
as §5, §7, §2

Escherichia coli No. 22 [6] = assay: Test 5: protective effect against bacterial infection (i.p. 7, 6, 3, 2 and 1 day before infection); details: mice observed 4 days
Method: (5) Test 5 (protective effect against bacterial infection)
as §1, §3, §4

[7] = 0.01 mg/kg i.p. 7, 6, 3, 2 and 1 day before i.p. E. coli infection
[8] = 0.1 mg/kg i.p. 7, 6, 3, 2 and 1 day before i.p. E. coli infection
[9] = 1.0 mg/kg i.p. 7, 6, 3, 2 and 1 day before i.p. E. coli infection
[10] = 1 mg/kg i.p. 6, 5, 4 and 1 day before i.p. E. coli infection
[11] = 0.01 mg/kg i.p. 8, 7, 4, 3 and 2 days before i.p. E. coli infection
[12] = 0.1 mg/kg i.p. 8, 7, 4, 3 and 2 days before i.p. E. coli infection
[13] = 1.0 mg/kg i.p. 8, 7, 4, 3 and 2 days before i.p. E. coli infection

| Compound | Survival rate (%) (Escherichia coli No. 22 [4]; [11]) | Survival rate (%) (Escherichia coli No. 22 [4]; [12]) | Survival rate (%) (Escherichia coli No. 22 [4]; [13]) | also measured |
| --- | --- | --- | --- | --- |
| C[C@H](NC(=O)[C@H](CCCCN)NC(=O)[C@@H]1CCC(=O)N1)C(=O)N[C@@H](CCCCN)C(=O)N[C@@H](CCCCN)C(=O)N[C@@H](CCC(N)=O)C(=O)NCC(=O)NCC(=O)N[C@@H](CO)C(=O)N[C@@H](CC(N)=O)C(=O)O [Example 16-(4), pGlu-Lys-Ala-Lys-Lys-Gln-Gly-Gly-Ser-Asn-OH] ([pGlu]KAKKQGGSN-OH) |  |  |  | Survival rate (%) [1]: 85% |
| C[C@H](NC(=O)[C@@H]1CCC(=O)N1)C(=O)N[C@@H](CCCCN)C(=O)N[C@@H](CCCCN)C(=O)N[C@@H](CCC(N)=O)C(=O)NCC(=O)NCC(=O)N[C@@H](CO)C(=O)N[C@@H](CC(N)=O)C(=O)O [Example 17-(2), pGlu-Ala-Lys-Lys-Gln-Gly-Gly-Ser-Asn-OH] ([pGlu]AKKQGGSN-OH) |  |  |  | Survival rate (%) [1]: 90% |
| H-DLKEKKEVVEE-OH [Example 6-(2), H-Asp-Leu-Lys-Glu-Lys-Lys-Glu-Val-Val-Glu-Glu-OH] |  |  |  | Survival rate (%) (Escherichia coli No. 22 [2]; [7]): 70%; Survival rate (%) (Escherichia coli No. 22 [2]; [8]): 40%; Survival rate (%) (Escherichia coli No. 22 [2]; [9]): 60% |
| H-EKLKSELVAN-OH [Example 4-(2), H-Glu-Lys-Leu-Lys-Ser-Glu-Leu-Val-Ala-Asn-OH] |  |  |  | Survival rate (%) (Escherichia coli No. 22 [3]; [10]): 50% |
| H-EQEKQ-OH [Example 11-(2), H-Glu-Gln-Glu-Lys-Gln-OH] | 70% | 50% | 70% |  |
| H-KEKKE-OH [Example 14-(2), H-Lys-Glu-Lys-Lys-Glu-OH] | 50% | 50% | 70% |  |
| H-KETIEQEKQ-OH [Example 12-(2), H-Lys-Glu-Thr-Ile-Glu-Gln-Glu-Lys-Gln-OH] | 70% | 50% | 50% |  |
| H-KFDKSKLKKTETQE-OH [Example 10-(2), H-Lys-Phe-Asp-Lys-Ser-Lys-Leu-Lys-Lys-Thr-Glu-Thr-Gln-Glu-OH] | 50% | 60% | 70% |  |
| H-KLKSE-OH [Example 15-(2), H-Lys-Leu-Lys-Ser-Glu-OH] | 80% | 100% | 80% |  |
| H-KSKLKKTETQE-OH [Example 9-(2), H-Lys-Ser-Lys-Leu-Lys-Lys-Thr-Glu-Thr-Gln-Glu-OH] | 70% | 70% | 70% |  |
| H-NVKAKIQDKEG-OH [Example 8-(2), H-Asn-Val-Lys-Ala-Lys-Ile-Gln-Asp-Lys-Glu-Gly-OH] | 80% | 60% | 90% |  |
| H-SKLKSNSTHQ-OH [Example 1-(2), H-Ser-Lys-Leu-Lys-Ser-Asn-Ser-Thr-His-Gln-OH] |  |  |  | Survival rate (%) ([5]; 0.01 mg/kg i.p. 8, 7, 4, 3 and 2 days before i.p. HSV-1 infection): 80%; Survival rate (%) ([5]; 0.1 mg/kg i.p. 8, 7, 4, 3 and 2 days before i.p. HSV-1 infection): 40%; Survival rate (%) ([5]; 1 mg/kg i.p. 8, 7, 4, 3 and 2 days before i.p. HSV-1 infection): 60%; Survival rate (%) (Escherichia coli No. 22 [3]; 0.1 mg/kg i.p. 6, 5, 4 and 1 day before i.p. E. coli infection): 40%; Survival rate (%) (Escherichia coli No. 22 [3]; [10]): 40% |
| H-TKDLKEKKEVVEE-OH [Example 7-(2), H-Thr-Lys-Asp-Leu-Lys-Glu-Lys-Lys-Glu-Val-Val-Glu-Glu-OH] |  |  |  | Survival rate (%) (Escherichia coli No. 22 [2]; [7]): 50%; Survival rate (%) (Escherichia coli No. 22 [2]; [8]): 70%; Survival rate (%) (Escherichia coli No. 22 [2]; [9]): 40% |
| H-TKEKLKSELVAN-OH [Example 5-(2), H-Thr-Lys-Glu-Lys-Leu-Lys-Ser-Glu-Leu-Val-Ala-Asn-OH] |  |  |  | Survival rate (%) (Escherichia coli No. 22 [3]; [10]): 50% |
| pGlu-Lys-Ala-Lys-Ser-Gln-Gly-Gly-Ser-Asn-OH ([pGlu]KAKSQGGSN-OH; SMILES C[C@H](NC(=O)[C@H](CCCCN)NC(=O)[C@@H]1CCC(=O)N1)C(=O)N[C@@H](CCCCN)C(=O)N[C@@H](CO)C(=O)N[C@@H](CCC(N)=O)C(=O)NCC(=O)NCC(=O)N[C@@H](CO)C(=O)N[C@@H](CC(N)=O)C(=O)O) [Example 18-(2)] |  |  |  | Survival rate (%) (Escherichia coli No. 22 [6]; [7]): 60%; Survival rate (%) (Escherichia coli No. 22 [6]; [8]): 70%; Survival rate (%) (Escherichia coli No. 22 [6]; [9]): 80% |
